Data from patent US12398178B2, “Collections of peptides, peptide agents, and methods of use thereof” (Parabilis Medicines, Inc., priority 2018, dated 2025).
pEC50: −log10 of the molar value. Starred links: 1 amine or outer side, 2 acyl side, 3 side chain; linkers in the order of their positions; H or OH if unused. Positions of bridges follow the written chain, without caps; N, C: chain ends. Residues, ends and D or L forms follow the SMILES beside them. No end group written: not given here. X1 = O=C(C[*:1])O[C@@H]1C=C[C@H](OC(=O)C[*:2])C1; Linker 16 = not defined here

How the values were obtained:
[1] = Measurement of LogD (CHI logD by HPLC); assay type: physicochemical; conditions: CHI log D, 50 mM ammonium acetate pH 7.4 / acetonitrile gradient, C-18 column, 25° C.
Protocol: Measurement of LogD: LogD values were measured on a Agilent 1260 HPLC with UV detector (254, 220 nm), using a Gemini NX C-18 50×3 mm column (Phenomenex) with a 6-minute 0-100% mobile phase gradient of A) 50 mM ammonium acetate pH 7.4 and B) Acetonitrile at 25° C. with a flow rate of 1 mL/min and injection volume of 3-5 uL.

full-length β-Catenin = target: T1, full-length β-Catenin (Homo sapiens, UniProt P35222); assay: Competition fluorescence polarization assay for binding to beta-catenin (displacement of FITC labeled Axin peptide probe); conditions: 15 nM full-length β-Catenin, 20 nM FITC labeled Axin peptide probe, 3-fold serial dilution from 5 μM; read-out: bCat EC50
T1 construct: Probe solution (15 nM full-length β-Catenin, 20 nM FITC labeled Axin peptide in buffer)
T1 sequence (P35222 1-781): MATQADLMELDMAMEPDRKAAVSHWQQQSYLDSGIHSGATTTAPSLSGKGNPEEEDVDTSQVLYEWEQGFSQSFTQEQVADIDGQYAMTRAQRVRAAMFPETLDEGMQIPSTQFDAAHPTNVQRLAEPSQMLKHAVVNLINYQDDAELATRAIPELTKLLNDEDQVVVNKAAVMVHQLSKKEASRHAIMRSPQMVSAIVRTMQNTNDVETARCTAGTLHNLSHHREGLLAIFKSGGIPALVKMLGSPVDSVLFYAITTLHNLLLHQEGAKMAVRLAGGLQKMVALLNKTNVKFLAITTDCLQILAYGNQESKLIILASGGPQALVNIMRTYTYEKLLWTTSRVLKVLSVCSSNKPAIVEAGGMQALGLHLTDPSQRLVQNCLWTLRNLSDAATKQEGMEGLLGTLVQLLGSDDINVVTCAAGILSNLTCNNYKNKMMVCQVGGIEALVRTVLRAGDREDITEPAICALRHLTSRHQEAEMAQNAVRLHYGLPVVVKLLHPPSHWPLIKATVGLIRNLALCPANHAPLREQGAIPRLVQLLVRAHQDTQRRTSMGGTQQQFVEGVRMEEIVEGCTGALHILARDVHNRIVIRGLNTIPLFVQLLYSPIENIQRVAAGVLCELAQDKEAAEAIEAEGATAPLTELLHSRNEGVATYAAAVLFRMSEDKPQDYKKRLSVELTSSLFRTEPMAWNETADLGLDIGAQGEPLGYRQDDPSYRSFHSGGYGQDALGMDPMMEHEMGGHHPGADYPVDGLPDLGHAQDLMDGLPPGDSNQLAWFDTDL
Protocol: Peptide assessment: In one assay for assessing binding to beta-catenin, peptide solutions were prepared in buffer (50 mM Tris pH 8.0, 250 mM NaCl, 2% glycerol, 0.5 mM EDTA, 0.02% w/v sodium azide) using a 3-fold serial dilution from 5 μM. Probe solution (15 nM full-length β-Catenin, 20 nM FITC labeled Axin peptide in buffer ([FAM-PEG1-RRWPR(S5)ILD(S5)HVRRVWR (SEQ ID NO: 44)] where the two S5 residues are stapled, as reported in: Proc Natl Acad Sci USA. 2012 Oct. 30; 109(44):17942-7)) was prepared and incubated for 5 minutes, then 40 μL per well plated in a black polystyrene 384-well plate (Corning). Equal volume of the titrated peptide was added to the plate and incubated protected from light for 15 minutes prior to read. Reads were performed on a Spectramax M5 (Molecular Devices) in duplicate.

[2] = Measurement of LogK (log k IAM by HPLC on IAM.PC.DD2 column); assay type: physicochemical; conditions: 50 mM ammonium acetate pH 7.4 / acetonitrile, 30° C.
Protocol: Measurement of LogK: LogK values were measured on a Agilent 1260 HPLC with UV detector (254,280 nm) using a IAM.PC.DD2 100×4.6 mm column (Regis Technologies 1-774011-300) with a 6.5 min gradient of 0-90% B with mobile phase A of 50 mM ammonium acetate pH 7.4, and mobile phase B of Acetonitrile. The temperature was 30° C., the flow rate 1.5 mL/min, and the injection volume 3-5 uL. Calibration mixture IAM was purchased from Bio-mimetic Chromatography Ltd and used to run calibration, calculate CHI IAM value, then calculate logk IAM using equation: log k IAM=0.046*CHI IAM+0.42.

Molecule | chromatographic logD [1] | pEC50 (full-length β-Catenin) | LogD [1] | LogK [2]
GPAKPEAPGEDASPDELYHYYTHLEEYLYDVA-NH2 (C-terminus assumed) [Compound 17] | 0.64 | < 5.00 |  | 
GPAKPEAPGEDASPDELHHYYQNLETYLYRVA-NH2 (C-terminus assumed) [Compound 15] | 0.82 | < 5.00 |  | 
GPAKPEAPGEDASPDELIHYYNSLDEYLYEVA-NH2 (C-terminus assumed) [Compound 16] | 0.53 | < 5.00 |  | 
CC(C)C[C@@H]1NC(=O)[C@H](C)NC(=O)[C@H](C)NC(=O)[C@H](Cc2c[nH]c3ccccc23)NC(=O)[C@H](CCC(=O)O)NC(=O)[C@@H](NC(=O)[C@H](CCCNC(=N)N)NC(=O)[C@H](Cc2c[nH]cn2)NC(=O)[C@@H](NC(=O)[C@H](C)NC(=O)[C@@H]2CCCN2C(=O)[C@H](CC(=O)O)NC(=O)[C@H](C)N)[C@@H](C)O)CSCC(=O)O[C@H]2CC[C@H](CC2)OC(=O)CSC[C@@H](C(=O)N[C@@H](CCC(=O)O)C(=O)N[C@@H](CC(C)C)C(=O)N[C@H](C(N)=O)C(C)C)NC(=O)[C@H](Cc2c[nH]cn2)NC1=O [Compound 36] | 0.77 | < 5.00 |  | 
CC(C)C[C@@H]1NC(=O)[C@H](C)NC(=O)[C@H](C)NC(=O)[C@H](Cc2c[nH]c3ccccc23)NC(=O)[C@H](CCC(=O)O)NC(=O)[C@@H](NC(=O)[C@H](CCCNC(=N)N)NC(=O)[C@H](Cc2c[nH]cn2)NC(=O)[C@@H](NC(=O)[C@H](C)NC(=O)[C@@H]2CCCN2C(=O)[C@H](CC(=O)O)NC(=O)[C@H](C)N)[C@@H](C)O)CSCC(=O)O[C@@H]2CC[C@@H](C2)OC(=O)CSC[C@@H](C(=O)N[C@@H](CCC(=O)O)C(=O)N[C@@H](CC(C)C)C(=O)N[C@H](C(N)=O)C(C)C)NC(=O)[C@H](Cc2c[nH]cn2)NC1=O [Compound 38] | 0.8 | < 5.00 |  | 
GPAKPEAPGEDASPEELYHYYWDLDDYLDRVA-NH2 (C-terminus assumed) [Compound 28] | 0.62 | < 5.00 |  | 
37 (ADPATHRCEWAALHCELV; linker 8-15 via Linker 16 (inferred); reading uncertain) [Compound 37] |  | < 5.00 | 0.84 | 1.34
GPAKPEAPGEDASPNELHYYYWELDSYLENVA-NH2 (C-terminus assumed) [Compound 27] | 0.64 | < 5.00 |  | 
CC[C@H](C)[C@@H]1NC(=O)[C@H](CC(C)C)NC(=O)[C@H](C)NC(=O)[C@H](C)NC(=O)[C@H](Cc2c[nH]cn2)NC(=O)[C@H](CCC(=O)O)NC(=O)[C@@H](NC(=O)[C@H](C)NC(=O)[C@H](Cc2c[nH]c3ccccc23)NC(=O)[C@H](CC(C)C)NC(=O)[C@H](C)NC(=O)[C@@H]2CCCN2C(=O)[C@H](CC(=O)O)NC(=O)[C@H](C)N)CSCC(=O)O[C@@H]2C=C[C@@H](C2)OC(=O)CSC[C@@H](C(=O)N[C@@H](CCC(=O)O)C(=O)N[C@H](C(=O)N[C@@H](CCC(N)=O)C(N)=O)[C@@H](C)O)NC1=O [Compound 48] (H-ADPALWACEHAALICETQ-NH2; linker 8-15 via X1; N-terminus and C-terminus assumed) | 0.93 | < 5.00 |  | 
GPAKPEAPGEDASPDELRMYYHELDNYLDQVA-NH2 (C-terminus assumed) [Compound 21] | 0.44 | < 5.00 |  | 
CC(C)C[C@@H]1NC(=O)[C@H](C)NC(=O)[C@H](C)NC(=O)[C@H](Cc2c[nH]c3ccccc23)NC(=O)[C@H](CCC(=O)O)NC(=O)[C@@H](NC(=O)[C@H](CCCNC(=N)N)NC(=O)[C@H](Cc2c[nH]cn2)NC(=O)[C@@H](NC(=O)[C@H](C)NC(=O)[C@@H]2CCCN2C(=O)[C@H](CC(=O)O)NC(=O)[C@H](C)N)[C@@H](C)O)CSCC(=O)Nc2ccccc2NC(=O)CSC[C@@H](C(=O)N[C@@H](CCC(=O)O)C(=O)N[C@@H](CC(C)C)C(=O)N[C@H](C(N)=O)C(C)C)NC(=O)[C@H](Cc2c[nH]cn2)NC1=O [Compound 35] | 0.77 | < 5.00 |  | 
CC(C)C[C@@H]1NC(=O)[C@H](C)NC(=O)[C@H](C)NC(=O)[C@H](Cc2c[nH]c3ccccc23)NC(=O)[C@H](CCC(=O)O)NC(=O)[C@@H](NC(=O)[C@H](CCCNC(=N)N)NC(=O)[C@H](Cc2c[nH]cn2)NC(=O)[C@@H](NC(=O)[C@H](C)NC(=O)[C@@H]2CCCN2C(=O)[C@H](CC(=O)O)NC(=O)[C@H](C)N)[C@@H](C)O)CSCC(=O)N(C)c2ccc(cc2)N(C)C(=O)CSC[C@@H](C(=O)N[C@@H](CCC(=O)O)C(=O)N[C@@H](CC(C)C)C(=O)N[C@H](C(N)=O)C(C)C)NC(=O)[C@H](Cc2c[nH]cn2)NC1=O [Compound 31] | 0.68 | < 5.00 |  | 
